Results from patent US8710097B2, “Flavonoid dimers and methods of making and using such” (The Hong Kong Polytechnic University, priority 2006, dated 2014).
Values after ≈ are worked out from the molar mass of the structure shown. Like-named read-outs stand apart in the source and are kept apart here.

Key:
[1] = test system: MDA435/LCC6 MDR cells; test: cells; conditions: for IC50: Homo sapiens; for RF (relative fold): LCC6 MDR, drug alone (reference)
Method: (§1) MDA435/LCC6 and P388 (both parent and MDR subtype) were maintained in DMEM and RPMI 1640 culture medium supplemented with 10% FBS, respectively. RPMI 1640 media also contained 100 units/ml penicillin and 100 μg/ml streptomycin. Cells were cultured at 37° C. in a humidified atmosphere with 5% CO2. A solution of 0.05% trypsin-EDTA was used to detach the MDA435/LCC6 (both wild type and MDR subtype) cells.
(§2) Cell proliferation assay. MDA435/LCC6 and P388 (both parent and MDR subtype) cells were seeded at 2000 and 5000 cells per well, respectively, in 96-well plates. Varying concentrations of anticancer drugs (Doxorubicin, Daunorubicin, Vincristine, Vinblastine, taxol, Mitoxantrone) with or without the flavonoid dimers were added in a final volume of 200 μl and cells were grown for 4 and 3 days for MDA435/LCC6 and P388 (both parent and MDR subtype) cells, respectively. For MDA435/LCC6 (both parent and MDR subtype), the corresponding drugs were added after cell attachment (24 hr incubation). To measure cell proliferation, the cell Titer 960 Aqueous Assay (Promega) was used according to the manufacturer's instructions. Briefly, MTS (2 mg/ml) and PMS (0.92 mg/ml) were mixed in a ratio of 20:1. 30 μl MTS/PMS mixture was added into each well and incubated for 2 hours at 37° C. Optical absorbance at 490 nm was then recorded using an ELISA microtiter plate reader (Bio-Rad). Each experiment was done at least in triplicate and repeated twice. Cytotoxicity of the anticancer drugs was expressed as the fraction of the cells survived relative to the untreated DMSO (0.05%) solvent controls.
MDA435/LCC6 is an estrogen-independent human breast cancer cell line. Its MDR subtype (MDA435/LCC6 MDR) was generated by transducing a retroviral vector directing the constitutive expression of the human MDR1 cDNA, producing a cell line with a classical MDR1 resistance pattern (MDA435/LCC6 and MDA435/LCC6MDR1: ascites models of human breast cancer. Br J Cancer 1996, 73, 154-161). The ability of the apigenin dimers of this invention to reverse taxol resistance in MDA435/LCC6 MDR cells were tested. […] Apigenin monomers 10a and 10b at 10 μM were used as the negative controls.

[2] = test system: P388/ADR cells; test: Doxorubicin accumulation; assay type: cell-based, murine; conditions: monomer 10b at double concentration of the dimers, FIG. 11A
Method: For P388 (both parent and MDR subtype) cells, 1 ml (10^5 cells) confluent cells were aliquot into Eppendorf tube and pre-incubated with flavone dimers for 30 min at 37° C. Doxorubicin (final concentration of 10 μM) was then added and incubated for 2 h at 37° C. at a final concentration of 10 μM. The cell pellets were washed 3 times with cold PBS by using an Eppendorf micro-centrifuge and lysed with 0.3N HCL in 50% ethanol, and sonicated for 30s. After centrifugation at 10000 rpm/min for 3 min, the supernatant was saved. The fluorescence of doxorubicin was measured using a spectrofluorometer (λexcite=470 nm, λemit=585 nm).

[3] = test system: pentamidine-resistant L. enriettii LePentR50 promastigotes; test: microbe, parasite or virus in culture; conditions: Leishmania enriettii, 72 h, read-out: IC50(μM) of synthetic flavonoid, LePentR50, cytotoxicity of compound alone; 72 hrs
Method: (§3) Cell lines and Cell Culture. Promastigotes of Leishmania enriettii (LePentR50, Le wild type, LeMDR1 −/− and LeMDR1-overexpressed LeV160 mutants) and Leishmania donovani (LdAG83, Ld2001 and Ld39) were employed in this study. The former is a natural infective strain of guinea pig and the latter is a clinical strain, which may cause visceral leishmaniasis in human. Both strains were cultured in Schneider's Drosophila Medium (Invitrogen), pH 6.9 supplemented with 10% (v/v) heat inactivated fetal calf serum (Hyclone) with 4 mM glutamine (Sigma) and 25 μg/mL gentamicin solution (Invitrogen), at 27° C. for 4 days (Cloning and functional analysis of an extrachromosomally amplified multidrug resistance-like gene in Leishmania enriettii. Mol. Biochem. Parasitol 1993, 60, 195-208).
Promastigotes of LeV160 were culture in the presence of 160 μg/mL vinblastine. No pentamidine and vinblastine (Sigma) was added to the Le wild type and LeMDR1 −/− mutant.
(§4) The viability of promastigotes was determined by the Cell Titer 96® Aqueous Assay (Promega) that employs a tetrazolium compound (MTS) and electron coupling reagent, phenazine methosulfate (PMS). Promastigotes were seeded into 96-well flat bottom microtiter plate at 1×10^5 cells per well in a final volume of 100 μL medium. To determine the cytotoxic effects of flavonoid dimers to the parasites, various concentrations of flavonoid dimers were added to the promastigotes. To determine the reversal effects of flavonoid dimers with different spacer lengths, various concentrations of antileishmanial drugs, one of pentamidine or SSG, vinblastine and puromycin was added to the wells with or without flavonoid dimers. The parasites were incubated at 27° C. for 72 hrs. Each concentration of antileishmanials with or without the flavonoid dimers was tested in triplicates in each experiment. A 2 mg/mL MTS and 0.92 mg/mL PMS were mixed at a ratio of 20:1 (MTS: PMS). After 72-hr incubation, 10 μL of MTS:PMS mixture was added into each well of microtiter plate. The plate was then incubated at 27° C. for 4 hrs for color development. After 4 hrs of incubation, the OD values were determined at 490 nm using automatic microtiter plate reader (Bio-Rad).

[4] = test system: wild type L. donovani LdAG83 promastigotes; test: Leishmania cell viability (MTS) assay; assay type: cell-based, Leishmania donovani; conditions: Leishmania donovani, 72 h, read-out: IC50(μM) of synthetic flavonoid, LdAG83
Method: as §3, with “195-208). […]” for “195-208).”
as §4

[5] = test system: SSG-resistant L. donovani Ld39 promastigotes; test: microbe, parasite or virus in culture; assay type: cell-based, Leishmania donovani; conditions: for IC50: Leishmania donovani, 72 h, read-out: IC50(μM) of synthetic flavonoid, Ld39
Method: as §3, with “195-208). […]” for “195-208).”
as §4

[6] = test system: LeMDR1 knockout (LeMDR1 −/−) L. enriettii; test: Leishmania cell viability (MTS) assay; assay type: cell-based, Leishmania enriettii; conditions: LeMDR1 −/−
From the text: (§5) Cell lines and Cell Culture.

[7] = test system: MDA435/LCC6 cells; test: Cell proliferation (MTS) assay, parental sensitive cells; assay type: cell-based; conditions: Homo sapiens, read-out: IC50 (nM) of anticancer drug alone
From the text: (§6) Cell proliferation assay.

[8] = test system: P388/ADR cells; test: cells; conditions: P388/ADR; for IC50: Mus musculus; for RF (relative fold): drug alone (reference)
Method: as §1, §2

[9] = test system: P388 cells; test: Cell proliferation (MTS) assay, parental sensitive cells; assay type: cell-based, murine; conditions: Mus musculus
From the text: as §6

[10] = test system: LeMDR1 overexpressed L. enriettii (LeV160); test: Leishmania cell viability (MTS) assay; assay type: cell-based, Leishmania enriettii; conditions: Leishmania enriettii
From the text: as §5

[11] = MDA435/LCC6 MDR, 5 μM dimer, FIG. 5
[12] = 96 h, read-out: IC50 (nM) of anticancer drug alone, LCC6 MDR, drug alone, no modulator
[13] = read-out: IC50 (nM) of anticancer drug alone
[14] = read-out: IC50 of anticancer drug alone
[15] = P388, drug alone, read-out: IC50 (nM) of anticancer drug alone

SMILES: O=c1cc(-c2ccc(OCCOCCOc3ccc(-c4cc(=O)c5c(O)cc(O)cc5o4)cc3)cc2)oc2cc(O)cc(O)c12 [Compound 9b, 1,7-Bis[4′-((5,7-dihydroxy)-4H-chromen-4-on-2-yl)phenyl]-1,4,7-trioxaheptane]
- IC60 of doxorubicin with modulator [1, 11]: 1.3 µM
- reduction of IC60 of doxorubicin, RF [1, 11]: ~3.1 RF
- activity on doxorubicin accumulation [2]: comparable activity to 9d
- IC50 [3]: > 200 µM
- IC50 [4]: > 200 µM
- SSG resistance modulating activity ([5]; Ld39, dimers at 6 μM, FIG. 14B): did not show substantial SSG resistance modulating activity
- IC50 [5]: > 200 µM
- pentamidine sensitization [6]: 2.0 fold

SMILES: O=c1cc(-c2ccc(OCCOCCOCCOCCOCCOCCOCCOCCOc3ccc(-c4cc(=O)c5c(O)cc(O)cc5o4)cc3)cc2)oc2cc(O)cc(O)c12 [Compound 9h, 1,25-Bis[4′-((5,7-dihydroxy)-4H-chromen-4-on-2-yl)phenyl]-1,4,7,10,13,16,19,22,25-nonaoxapentacosane]
- doxorubicin sensitization ([1]; MDA435/LCC6 MDR, dimers): very little or no doxorubicin sensitization
- reversing effect on taxol resistance ([1]; MDA435/LCC6 MDR, dimers at 5 μM): little or no reversing effect
- IC50 [4]: 12 ± 0.2 µM
- IC50 [5]: 14 ± 0.1 µM
- pentamidine sensitization [6]: 2.3 fold

SMILES: COc1cccc2c1C(=O)c1c(O)c3c(c(O)c1C2=O)C[C@@](O)(C(C)=O)C[C@@H]3O[C@H]1C[C@H](N)[C@H](O)[C@H](C)O1 [Daunorubicin]
- IC50 [1, 12]: 977 nM
- RF (relative fold) [1]: 1
- IC50 [7]: 79 nM
- IC50 [8, 13]: 2110 nM
- IC50 [8, 14]: 2100 nM
- RF (relative fold) [8]: 1
- IC50 ([9]; P388, read-out: IC50 (nM) of anticancer drug alone): 25 nM

SMILES: COc1cccc2c1C(=O)c1c(O)c3c(c(O)c1C2=O)C[C@@](O)(C(=O)CO)C[C@@H]3O[C@H]1C[C@H](N)[C@H](O)[C@H](C)O1 [Doxorubicin]
- IC50 [1, 12]: 4690 nM
- RF (relative fold) [1]: 1
- IC60 of doxorubicin alone ([1]; MDA435/LCC6 MDR, no modulator, FIG. 5): 4.7 µM
- IC50 ([7]; LCC6, drug alone): 300 nM
- IC50 [8, 13]: 1740 nM
- IC50 [8, 14]: 1500 nM
- RF (relative fold) [8]: 1
- IC50 [9, 15]: 22 nM

SMILES: O=C1c2c(O)ccc(O)c2C(=O)c2c(NCCNCCO)ccc(NCCNCCO)c21 [Mitoxantrone]
- IC50 [1, 12]: 1440 nM
- RF (relative fold) [1]: 1
- IC50 ([7]; LCC6, drug alone): 0.35 nM
- IC50 [8, 13]: 395 nM
- RF (relative fold) [8]: 1
- IC50 [9, 15]: 4.3 nM

SMILES: CC(=O)O[C@H]1C(=O)[C@@]2(C)[C@H]([C@H](OC(=O)c3ccccc3)[C@]3(O)C[C@H](OC(=O)[C@H](O)[C@@H](NC(=O)c4ccccc4)c4ccccc4)C(C)=C1C3(C)C)[C@]1(OC(C)=O)CO[C@@H]1C[C@@H]2O [Taxol, paclitaxel]
- IC50 [1, 12]: 115 nM
- IC50 ([1]; read-out: Mean IC50 of taxol (nM), LCC6MDR, no analog added (control)): 128 nM
- RF (relative fold) [1]: 1
- IC50 ([7]; LCC6, drug alone): 2.9 nM
- IC50 [8, 13]: 1640 nM
- RF (relative fold) [8]: 1
- IC50 [9, 15]: 22 nM

SMILES: CC[C@]1(O)C[C@@H]2CN(CCc3c([nH]c4ccccc34)[C@@](C(=O)OC)(c3cc4c(cc3OC)N(C)[C@H]3[C@@](O)(C(=O)OC)[C@H](OC(C)=O)[C@]5(CC)C=CCN6CC[C@]43[C@@H]65)C2)C1 [Vinblastine]
- IC50 [1, 12]: 4.8 nM
- RF (relative fold) [1]: 1
- IC50 ([7]; LCC6, drug alone): 0.34 nM
- IC50 ([8]; 72 h, read-out: IC50 (nM) of anticancer drug alone): 95 nM
- RF (relative fold) [8]: 1
- IC50 [9, 15]: 4.1 nM
- IC50 ([10]; read-out: IC50 of vinblastine (μg/ml), no modulator): 167 ± 3.6 µg/mL (≈ 206 µM)

SMILES: CC[C@]1(O)C[C@H]2CN(CCc3c([nH]c4ccccc34)[C@@](C(=O)OC)(c3cc4c(cc3OC)N(C=O)[C@H]3[C@@](O)(C(=O)OC)[C@H](OC(C)=O)[C@]5(CC)C=CCN6CC[C@]43[C@@H]65)C2)C1 [Vincristine]
- IC50 [1, 12]: 26 nM
- RF (relative fold) [1]: 1
- IC50 ([7]; LCC6, drug alone): 0.29 nM
- IC50 [8, 13]: 299 nM
- RF (relative fold) [8]: 1
- IC50 [9, 15]: 2.2 nM

SMILES: COc1ccc(C[C@H](N)C(=O)N[C@H]2[C@@H](O)[C@H](n3cnc4c(N(C)C)ncnc43)O[C@@H]2CO)cc1 [puromycin]
- IC50 ([10]; read-out: IC50 of puromycin (μg/ml), no modulator): 16 ± 1 µg/mL (≈ 33.9 µM)
